Reference: ChEMBL document CHEMBL1136066, “Non-covalent thrombin inhibitors featuring P(3)-heterocycles with P(1)-monocyclic arginine surrogates” (Bioorg Med Chem Lett, 2002)

Experiments:
[1] = biological target: T1, Coagulation factor X (Homo sapiens, UniProt P00742)
[2] = biological target: T2, Serine protease 1 (Homo sapiens, UniProt P07477)
[3] = biological target: Prothrombin (Homo sapiens, UniProt P00734); assay: In vitro inhibitory constant against human thrombin (FIIa).
[4] = biological target: T1, Coagulation factor X; remark: listed apart in the source
[5] = biological target: T2, Serine protease 1; remark: listed apart in the source

T2 sequence (P07477 whole entry): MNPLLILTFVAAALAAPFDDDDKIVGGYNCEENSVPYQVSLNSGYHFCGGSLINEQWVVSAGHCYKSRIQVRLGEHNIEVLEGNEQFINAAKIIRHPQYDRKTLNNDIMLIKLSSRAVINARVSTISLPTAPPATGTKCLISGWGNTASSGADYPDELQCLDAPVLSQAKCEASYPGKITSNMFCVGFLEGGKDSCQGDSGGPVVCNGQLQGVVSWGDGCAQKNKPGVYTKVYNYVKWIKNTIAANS
T1 sequence (P00742 41-179 limits assumed): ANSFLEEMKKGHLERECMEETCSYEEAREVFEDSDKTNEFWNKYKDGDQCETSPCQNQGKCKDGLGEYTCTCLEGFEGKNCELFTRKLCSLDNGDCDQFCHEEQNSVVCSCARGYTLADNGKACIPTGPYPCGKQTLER
T1 sequence (P00742 235-488 limits assumed): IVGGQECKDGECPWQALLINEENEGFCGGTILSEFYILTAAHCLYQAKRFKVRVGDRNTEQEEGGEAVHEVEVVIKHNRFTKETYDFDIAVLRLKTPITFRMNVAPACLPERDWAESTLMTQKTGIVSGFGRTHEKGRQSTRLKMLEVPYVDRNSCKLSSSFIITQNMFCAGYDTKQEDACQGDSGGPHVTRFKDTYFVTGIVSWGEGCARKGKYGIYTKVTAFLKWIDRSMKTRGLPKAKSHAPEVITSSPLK

SMILES	Ki [1]	Ki [2]	Ki [3]	Ki [4]	Ki [5]
Cc1nc(N)ncc1CNC(=O)Cn1c(C)ccc(NS(=O)(=O)Cc2cccc3c2OCCO3)c1=O	Not Active	Not Active			
COc1cccc(S(=O)(=O)Nc2cccn(CC(=O)NCc3ccc(C(=N)N)cc3)c2=O)c1			5.3 nM	153 nM	18.7 nM
Cc1ccc(NS(=O)(=O)Cc2ccccc2F)c(=O)n1CC(=O)N[C@H](CCCNC(=N)N)C(=O)O [CVS-2359]			0.14 nM	674 nM	12.4 nM
Cc1cnc(NCCc2ccccc2)c(=O)n1CC(=O)NCc1ccc(C(=N)NO[Si](C)(C)C(C)(C)C)s1	Not Active	Not Active	13.2 nM		
Cc1cnc(NCC2(c3ccc(Cl)cc3)CCC2)c(=O)n1CC(=O)NCc1cnc(N)cn1	Not Active	Not Active	5.5 nM		
Cc1ccc(NS(=O)(=O)Cc2ccccc2)c(=O)n1CC(=O)NCc1cnc(N)cn1	Not Active	Not Active	158 nM		
Cc1cnc(NCCc2ccccc2)c(=O)n1CC(=O)NCC1CN=C(N)NC1 (stereo unspecified)	Not Active	Not Active	1.9 nM		
Cc1ccc(NS(=O)(=O)Cc2ccccc2)c(=O)n1CC(=O)NCc1ccc(C(=N)N)c(F)c1	Not Active	Not Active	3.6 nM		
Cc1nc(N)nc(C)c1CNC(=O)Cn1c(C)ccc(NS(=O)(=O)Cc2ccccc2)c1=O	Not Active	Not Active	281 nM		
COc1cccc(S(=O)(=O)Nc2cccn(CC(=O)NCc3ccc(C(=N)N)cc3OC)c2=O)c1			1.6 nM	76.8 nM	11.9 nM
Cc1cnc(NCC(F)(F)c2ccc(F)cc2)c(=O)n1CC(=O)NCc1cnc(N)cn1	Not Active	Not Active	5.9 nM		
COc1cccc(S(=O)(=O)Nc2cccn(CC(=O)NCc3nc(C(=N)N)cs3)c2=O)c1			5.9 nM	179 nM	> 168 nM
Cc1ccc(NS(=O)(=O)Cc2ccccc2)c(=O)n1CC(=O)NCc1ccc(C(=N)N)cc1	Not Active		0.37 nM		49.3 nM
COc1cccc(S(=O)(=O)Nc2cccn(CC(=O)NCc3ccc(C(=N)N)cc3Cl)c2=O)c1			20.8 nM		76.5 nM
Cc1ccc(NS(=O)(=O)Cc2ccccc2)c(=O)n1CC(=O)NC[C@@H]1CNC(N)=N[C@@H]1C	Not Active	Not Active	1.1 nM		
Cc1nc(N)ncc1CNC(=O)Cn1c(C)cnc(NCC(F)(F)c2ccccc2)c1=O	Not Active	Not Active	141 nM		
Cc1nc(N)ncc1CNC(=O)Cn1c(C)cnc(NCCc2ccccc2)c1=O	Not Active	Not Active	197 nM		

SMILES	Ki [1]	Ki [2]	Ki [3]	Ki [4]	Ki [5]
Cc1cnc(NCCc2ccccc2)c(=O)n1CC(=O)NCc1cnc(N)cn1	Not Active	Not Active			
Cc1cnc(NCCc2ccccc2)c(=O)n1CC(=O)NCc1ccc(C(=N)NO)s1	Not Active	Not Active	30.8 nM		
Cc1cnc(NCCc2ccccc2)c(=O)n1CC(=O)NC[C@@H]1CNC(N)=N[C@@H]1C	Not Active	Not Active	3.2 nM		
Cc1cnc(NCCc2ccccc2)c(=O)n1CC(=O)NCc1cnc(N)nc1	Not Active	Not Active	357 nM		
COC(=O)c1ccc(F)cc1CS(=O)(=O)Nc1ccc(C)n(CC(=O)N[C@H](CCCN=C(N)N)C(=O)O)c1=O			0.1 nM	1810 nM	16.6 nM
Cc1cnc(NCC(F)(F)c2ccccc2)c(=O)n1CC(=O)NCc1cnc(N)cn1	Not Active	Not Active	9.8 nM		
Cc1ccc(NS(=O)(=O)Cc2ccccc2)c(=O)n1CC(=O)NCc1nc(CN)cs1			136 nM	> 338 nM	> 168 nM
Cc1nc(N)ccc1CNC(=O)Cn1c(C)ccc(NS(=O)(=O)Cc2ccccc2)c1=O [L-374087]		Not Active	0.68 nM		
Cc1nc(N)ncc1CNC(=O)Cn1c(C)ccc(NS(=O)(=O)Cc2ccccc2)c1=O	Not Active	Not Active	85.2 nM		
Cc1ccc(NS(=O)(=O)Cc2ccccc2)c(=O)n1CC(=O)NCc1ccc(C(=N)N)s1			0.1 nM	96.4 nM	13.6 nM
Cc1nc(N)ncc1CNC(=O)Cn1c(C)cnc(NCCc2ccc3c(c2)CCO3)c1=O	Not Active	Not Active	324 nM		
Cc1cnc(NCCc2ccccc2)c(=O)n1CC(=O)NCc1ccc(C(=N)N)cc1	Not Active				19.7 nM
COc1cccc(S(=O)(=O)Nc2cccn(CC(=O)NCc3ccc(C(=N)N)cc3F)c2=O)c1			6 nM	249 nM	31.3 nM
Cc1cnc(NCCc2ccccc2)c(=O)n1CC(=O)NCc1ccc(C(=N)N)s1	Not Active		0.12 nM		4.4 nM
Cc1ccc(NS(=O)(=O)Cc2ccccc2)c(=O)n1CC(=O)NCC1CN=C(N)NC1 (stereo unspecified)	Not Active	Not Active	1 nM		
Cc1ccc(NS(=O)(=O)Cc2ccccc2)c(=O)n1CC(=O)NCc1cnc(N)nc1	Not Active	Not Active	462 nM		
Cc1nc(N)ccc1CNC(=O)Cn1c(C)cnc(NCCc2ccccc2)c1=O [L-375378]		Not Active	1 nM		
